This is an account of results in patent EP0768085A1, “ANTIBACTERIAL AGENT” (DAIICHI PHARMACEUTICAL CO., LTD., priority 1994, dated 1996).

In general, MIC refers to the least concentration at which growth counts as inhibited. A high value points to weaker potency.

In brackets after ≈: the same amount, converted by molar mass.

Type in all cases: cell-based
Assay [1] deals with Pasteurella multocida (Kobe-6). Put plainly: Antibacterial activity (IC), broth microplate as in Example 4 (Example 6, Table 41). Conditions: origin pig. On the procedure:
(§1) A suitable amount of a sample was dissolved in dimethylsulfoxide (DMSO), and the resultant solution was diluted with the same amount of sterilized distilled water to prepare a bulk sample of 1,000 µg/ml. Mueller-Hinton broth (product of DIFCO) was dispensed into each well of 96-well microplate. Thereafter, the bulk specimen was added to the first well of a row, and successively diluted (10-fold each time) with sterilized distilled water. Separately, a bacterial cell suspension for the test (Staphylococcus aureus 209-P) which had been cultured in the above-mentioned broth overnight at 37°C was inoculated to each well so that the final inoculation amount of 10^6 CFU/ml was attained. The final concentrations of the samples were 100, 10, and 1 µg/ml.
(§2) The antibacterial action was evaluated by the inhibitory concentration (hereinafter abbreviated as IC) at which propagation of the bacteria cultured at 37°C for 18 hours was inhibited. Inhibition was determined by the turbidity of the medium. The expressions "IC≤100", "≤10", and "≤1" indicate that MIC-equivalent values obtained at the succesive […] dilution of the sample are 100-10 µg/ml, 10-1 µg/ml, and not more than 1 µg/ml, respectively. […] (In the subsequent Examples, the same rule applies correspondingly.) Table 39
In a manner similar to that described in Example 4, antibacterial activity of the invention compound was determined. The bacterium used for the test was Pasteurella Kobe-6 (origin: pig; Pasteurella multocida).

Assay [2] relates to Bordetella bronchiseptica (SM2-4). Put plainly: Antibacterial activity (IC), broth microplate as in Example 4 (Example 7, Table 42). Here is the method: as §1, §2
In a manner similar to that described in Example 4, antibacterial activity of the invention compound was determined. The bacterium used for the test was Bordetella bronchiseptica (SM2-4).

Assay [3] concerns Staphylococcus aureus 209-P. Description: Antibacterial activity (IC), Mueller-Hinton broth, 96-well microplate (Example 4, Table 39). To be noted: 37°C, 18 hours. On the procedure:
as §1, §2

The test system of assay [4] is Staphylococcus aureus TI-1. Description: Antibacterial activity (IC), broth microplate as in Example 4 (Example 5, Table 40). On the procedure:
as §1, §2
In a manner similar to that described in Example 4, antibacterial activity of the invention compound was determined. The bacterium used for the test was Staphylococcus aureus TI-1.

Assay [5] relates to methicillin-resistant Staphylococcus aureus (MRSA) isolated from humans. Description: Antibacterial activity (IC), Mueller-Hinton agar containing the sample (Example 8, Table 43). To be noted: 18 hours. On the procedure: as §2
(§3) A suitable amount of a sample was dissolved in dimethylsulfoxide (DMSO), after which the resulting solution was diluted with the same amount of sterilized distilled water to prepare a bulk sample of 1,000 µg/ml. Separately, a bacterial liquid for the test (methicillin-resistant Staphylococcus aureus (MRSA) isolated from humans) which had been cultured in Mueller-Hinton broth (product of DIFCO) was prepared and inoculated to a Mueller-Hinton agar (product of DIFCO) containing the sample so that the final inoculation amount of 10^6 CFU/ml was achieved. The final concentrations of the samples were 100, 10, and 1 µg/ml.
(§4) After culturing at 37°C for 18 hours, the antibacterial activity was evaluated in terms of IC in a manner similar to that described in Example 4.

The next assay concerns Enterococcus from fish. Description: Antibacterial activity (IC), agar as in Example 8, media with 1.5% NaCl, 25°C (Example 20, Tables 53-55). Summed up:
(§5)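 Growth inhibition was scored by turbidity after culture at 25°C, with IC bands set from 2-fold-dilution MIC-equivalents. Samples were tested at final 100, 10 and 1 µg/ml in Mueller-Hinton agar with 1.5% NaCl, seeded with 10^6 CFU/ml of the fish isolates.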

Another assay has as its system Pasteurella from fish. Described as above. The gist of the method:
as §5

Assay [6] deals with Streptococcus aureus (TI-1). Description: Antibacterial activity (IC), agar as in Example 8 (Example 16, Table 49). To be noted: 18 h. Summed up: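 Compound at final 100, 10 or 1 µg/ml in Mueller-Hinton agar, inoculated with […] aureus (TI-1) at 10^6 CFU/ml and cultured 37°C for 18 h. Inhibition read from medium turbidity; IC given as 100-10, 10-1 or ≤1 µg/ml ranges from 2-fold dilution.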

The subject of assay [7] is Staphylococcus aureus (209-P). Put plainly: Antibacterial activity (IC), agar as in Example 8 (Example 15, Table 48). Conditions: 18 h. The gist of the method:
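Samples in DMSO, diluted with sterile water, incorporated into Mueller-Hinton agar at 1, 10 and 100 µg/ml final. Bacteria seeded at 10^6 CFU/ml and grown 18 h at 37°C. Inhibition read as turbidity; values reported as IC ranges rather than exact MICs.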

Assay [8] concerns Bordetella bronchiseptica (SM2-4). Description: Antibacterial activity (IC), agar as in Example 8 (Example 18, Table 51). To be noted: 18 h. Here is the method: as §2, §3, §4
(§6) In a manner similar to that described in Example 8, antibacterial activity of the invention compound was determined. The bacterium used for the test was Bordetella bronchiseptica (S1) and Bordetella bronchiseptica (SM2-4).

Assay [9] deals with Bordetella bronchiseptica (S1). The assay is described as above. Conditions: 18 h. Here is the method: as §2, §3, §4, §6
Assay [10] concerns Pasteurella multocida (Kobe-6). Put plainly: Antibacterial activity (IC), agar as in Example 8 (Example 17, Table 50). To be noted: 18 h, origin pig. The gist of the method:
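Agar dilution on Mueller-Hinton agar with compound at 100, 10 and 1 µg/ml, inoculated at 10^6 CFU/ml with pig-origin strain Kobe-6. After 18 h at 37 °C, IC scored from turbidity and reported as a band (≤100, ≤10, ≤1 µg/ml).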

Assay [11] relates to methicillin-resistant Staphylococcus aureus (MRSA) from humans. Put plainly: Antibacterial activity (IC), agar as in Example 8 (Example 19, Table 52). Conditions: 18 h. Summed up: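 MRSA human isolate at 10^6 CFU/ml on Mueller-Hinton agar containing compound at 100, 10 or 1 µg/ml, grown 18 h at 37 °C. IC is the lowest tested level that inhibited growth, binned as ≤100, ≤10 or ≤1 µg/ml.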

[12] abbreviates: Enterococcus Seriolicida KG86050.
[13] abbreviates: Enterococcus Seriolicida MS89060.
Setting [14] is: Enterococcus Seriolicida MS89064.
Where [15] appears, read: Enterococcus Seriolicida MS89066.
Setting [16] is: Enterococcus Seriolicida MS89068.
[17] abbreviates: Enterococcus Seriolicida SE94-001.
The mark [18] stands for this setting: Enterococcus Seriolicida SE94-002.
Setting [19] is: Enterococcus Seriolicida SE94-003.
Setting [20] is: Enterococcus Seriolicida SE94-004.
Where [21] appears, read: Enterococcus Seriolicida SE94-005.

Regarding “4-[2-(2-chloro-4-trifluoromethylphenoxy)-4-methylphenoxy]-2-(3,4-dichlorophenyl)-3-oxopentanonitrile and 4-[2-(2-chloro-4-trifluoromethylphenoxy)-5-methylphenoxy]-2-(3,4-dichlorophenyl)-3-oxopentanonitrile [Compound No. 308]”, the IC in assay [1] was 308 (≤10) (10-1 µg/ml); in assay [2] it was 308 (≤100) (MIC-equivalent values obtained at the succesive 2-fold dilution of the sample are 100-10 µg/ml); in [3] it was 308 (≤1) (not more than 1 µg/ml); in assay [4], 308 (≤1) (not more than 1 µg/ml); in assay [5] (MRSA strain 891179, 37°C) it was not above 1 µg/mL; in assay [5] (MRSA strain 891185, 37°C), not above 1 µg/mL. Moreover, the IC in assay [5] (MRSA strain 891187, 37°C) is not above 1 µg/mL; in [5] (MRSA strain 891192, 37°C), not above 1 µg/mL; in assay [5] (MRSA strain 900048, 37°C), not above 1 µg/mL; in assay [5] (MRSA strain 900056, 37°C), not above 1 µg/mL; in the assay on Enterococcus from fish (Enterococcus Seriolicida HI), not above 1 µg/mL; in the assay on Enterococcus from fish (setting [12]) it was not above 1 µg/mL. For the same molecule, the IC in the assay on Enterococcus from fish (setting [13]), with Enterococcus from fish (setting [14]), in the assay with Enterococcus from fish (setting [15]), in the assay on Enterococcus from fish (setting [16]), in the assay on Enterococcus from fish (setting [17]) and in the assay with Enterococcus from fish (setting [18]) was not above 1 µg/mL in each case. The IC is not above 1 µg/mL with Enterococcus from fish (setting [19]); not above 1 µg/mL in the assay on Enterococcus from fish (setting [20]); not above 1 µg/mL in the assay with Enterococcus from fish (setting [21]); “≤” in the assay with Pasteurella from fish (Pasteurella piscicida KP94-02); “≤” with Pasteurella from fish (Pasteurella piscicida KP94-04); “≤” with Pasteurella from fish (Pasteurella piscicida KP94-05). In addition, in the assay with Pasteurella from fish (Pasteurella piscicida KP94-06), the IC entry is reported as “≤”.
Turning to `Cc1cc(Oc2ccc(C(F)(F)F)cc2Cl)cc(OC(C)C(=O)C(C#N)c2ccc(Cl)c(Cl)c2)c1` (stereo not shown) [Compound No. 112, 4-[3-(2-chloro-4-trifluoromethylphenoxy)-5-methylphenoxy]-2-(3,4-dichlorophenyl)-3-oxopentanonitrile], the MIC in assay [6] is not above 1 mg/L; in assay [7], not above 1 mg/L; in assay [8], 10 to 100 mg/L (≈ 18.4 to 184 µM); in assay [9] it was 10 to 100 mg/L (≈ 18.4 to 184 µM); in [10], not above 1 mg/L; in assay [11] (MRSA strain 891179), not above 1 mg/L. Also, the MIC in assay [11] (MRSA strain 891185) is not above 1 mg/L; in [11] (MRSA strain 891187), not above 1 mg/L; in assay [11] (MRSA strain 891192), not above 1 mg/L; in assay [11] (MRSA strain 900048) it was not above 1 mg/L; in [11] (MRSA strain 900056) it was not above 1 mg/L; against Enterococcus from fish (setting [18]) it was 1 to 10 mg/L (≈ 1.84 to 18.4 µM). In addition, the MIC with Pasteurella from fish (Pasteurella piscicida KP94-02) is 1 to 10 mg/L (≈ 1.84 to 18.4 µM). For the same molecule, the IC with Enterococcus from fish (Enterococcus Seriolicida HI), in the assay with Enterococcus from fish (setting [12]), in the assay on Enterococcus from fish (setting [13]), in the assay on Enterococcus from fish (setting [14]), in the assay with Enterococcus from fish (setting [15]) and in the assay on Enterococcus from fish (setting [16]) was ≤10 (10-1 µg/ml) in each case. Also, the IC in the assay on Enterococcus from fish (setting [17]), in the assay with Enterococcus from fish (setting [19]), with Enterococcus from fish (setting [20]) and in the assay on Enterococcus from fish (setting [21]) was ≤10 (10-1 µg/ml) throughout.
As for `Cc1cccc(C(C#N)C(=O)C(C)Oc2ccc(Oc3ncc(C(F)(F)F)cc3Cl)cc2)c1` (stereo not shown) [compound 16], the MIC was in the range of 10 to 100 mg/L (≈ 21.1 to 211 µM) in assay [1] (18 h); 10 to 100 mg/L (≈ 21.1 to 211 µM) in [2] (18 h); 10 to 100 mg/L (≈ 21.1 to 211 µM) in assay [3]; 1 to 10 mg/L (≈ 2.11 to 21.1 µM) in assay [4] (TI1, 18 h).
